Experimental data published in ChEMBL document CHEMBL5126568, “Determination of Slow-Binding HDAC Inhibitor Potency and Subclass Selectivity” (ACS Med Chem Lett, 2022).

Legend:
Histone deacetylase 2 [1] = target: T1, Histone deacetylase 2 (Homo sapiens, UniProt Q92769); assay: Inhibition of full length C-terminal FLAG-tagged HDAC2 (unknown origin) assessed as inhibition constant (Ki) using (Ac-Leu-Gly-Lys(Ac)-AMC as substrate measured every 30 sec for 60 mins by fluorescence based assay
Histone deacetylase 2 [2] = target: T1, Histone deacetylase 2; assay: Inhibition of full length C-terminal FLAG-tagged HDAC2 (unknown origin) assessed as rate constant (k1) of EI complex using (Ac-Leu-Gly-Lys(Ac)-AMC as substrate measured every 30 sec for 60 mins by fluorescence based assay
Histone deacetylase 1 [3] = target: T2, Histone deacetylase 1 (Homo sapiens, UniProt Q13547); assay: Inhibition of full length C-terminal His-tagged HDAC1 (unknown origin) using (Ac-Leu-Gly-Lys(Ac)-AMC as substrate preincubated with enzyme for 2 hrs followed by substrate addition and measured after 30 mins by fluorescence based assay
Histone deacetylase 1 [4] = target: T2, Histone deacetylase 1; assay: Inhibition of full length C-terminal His-tagged HDAC1 (unknown origin) using (Ac-Leu-Gly-Lys(Ac)-AMC as substrate preincubated with enzyme for 30 mins followed by substrate addition and measured after 30 mins by fluorescence based assay
Histone deacetylase 1 [5] = target: T2, Histone deacetylase 1; assay: Inhibition of full length C-terminal His-tagged HDAC1 (unknown origin) assessed as rate constant (k-1) of EI complex using (Ac-Leu-Gly-Lys(Ac)-AMC as substrate measured every 30 sec for 60 mins by fluorescence based assay
Histone deacetylase 2 [6] = target: T1, Histone deacetylase 2; conditions: time 60.0 min
Histone deacetylase 1 [7] = target: T2, Histone deacetylase 1; assay: Inhibition of full length C-terminal His-tagged HDAC1 (unknown origin) assessed as inhibition constant (Ki) using (Ac-Leu-Gly-Lys(Ac)-AMC as substrate measured every 30 sec for 60 mins by fluorescence based assay
Histone deacetylase 2 [8] = target: T1, Histone deacetylase 2; assay: Inhibition of full length C-terminal FLAG-tagged HDAC2 (unknown origin) assessed as rate constant (k-1) of EI complex using (Ac-Leu-Gly-Lys(Ac)-AMC as substrate measured every 30 sec for 60 mins by fluorescence based assay
Histone deacetylase 1 [9] = target: T2, Histone deacetylase 1; assay: Inhibition of full length C-terminal His-tagged HDAC1 (unknown origin) assessed as rate constant (k1) of EI complex using (Ac-Leu-Gly-Lys(Ac)-AMC as substrate measured every 30 sec for 60 mins by fluorescence based assay
Histone deacetylase 1 [10] = target: T2, Histone deacetylase 1; assay: Inhibition of full length C-terminal His-tagged HDAC1 (unknown origin) using (Ac-Leu-Gly-Lys(Ac)-AMC as substrate preincubated with enzyme for 1 hrs followed by substrate addition and measured after 30 mins by fluorescence based assay
Histone deacetylase 1 [11] = target: T2, Histone deacetylase 1; conditions: time 60.0 min
Histone deacetylase 2 [12] = target: T1, Histone deacetylase 2; assay: Inhibition of full length C-terminal FLAG-tagged HDAC2 (unknown origin) using (Ac-Leu-Gly-Lys(Ac)-AMC as substrate preincubated with enzyme for 30 mins followed by substrate addition and measured after 30 mins by fluorescence based assay
Histone deacetylase 2 [13] = target: T1, Histone deacetylase 2; assay: Inhibition of full length C-terminal FLAG-tagged HDAC2 (unknown origin) using (Ac-Leu-Gly-Lys(Ac)-AMC as substrate preincubated with enzyme for 1 hrs followed by substrate addition and measured after 30 mins by fluorescence based assay
Histone deacetylase 2 [14] = target: T1, Histone deacetylase 2; assay: Inhibition of full length C-terminal FLAG-tagged HDAC2 (unknown origin) using (Ac-Leu-Gly-Lys(Ac)-AMC as substrate preincubated with enzyme for 2 hrs followed by substrate addition and measured after 30 mins by fluorescence based assay

T2 sequence (Q13547 whole entry): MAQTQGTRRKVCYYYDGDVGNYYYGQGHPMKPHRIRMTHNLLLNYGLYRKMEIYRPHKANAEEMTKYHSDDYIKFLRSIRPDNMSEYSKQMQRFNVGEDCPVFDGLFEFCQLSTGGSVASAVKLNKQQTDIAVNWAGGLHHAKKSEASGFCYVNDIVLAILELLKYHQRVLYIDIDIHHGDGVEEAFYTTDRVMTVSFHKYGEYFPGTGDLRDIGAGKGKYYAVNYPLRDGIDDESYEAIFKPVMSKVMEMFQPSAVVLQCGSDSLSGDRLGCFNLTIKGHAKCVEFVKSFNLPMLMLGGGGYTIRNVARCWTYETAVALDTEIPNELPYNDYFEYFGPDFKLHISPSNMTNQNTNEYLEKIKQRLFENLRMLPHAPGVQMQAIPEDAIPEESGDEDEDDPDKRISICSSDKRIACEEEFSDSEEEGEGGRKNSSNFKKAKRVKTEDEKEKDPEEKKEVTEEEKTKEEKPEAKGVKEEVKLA
T1 sequence (Q92769 whole entry): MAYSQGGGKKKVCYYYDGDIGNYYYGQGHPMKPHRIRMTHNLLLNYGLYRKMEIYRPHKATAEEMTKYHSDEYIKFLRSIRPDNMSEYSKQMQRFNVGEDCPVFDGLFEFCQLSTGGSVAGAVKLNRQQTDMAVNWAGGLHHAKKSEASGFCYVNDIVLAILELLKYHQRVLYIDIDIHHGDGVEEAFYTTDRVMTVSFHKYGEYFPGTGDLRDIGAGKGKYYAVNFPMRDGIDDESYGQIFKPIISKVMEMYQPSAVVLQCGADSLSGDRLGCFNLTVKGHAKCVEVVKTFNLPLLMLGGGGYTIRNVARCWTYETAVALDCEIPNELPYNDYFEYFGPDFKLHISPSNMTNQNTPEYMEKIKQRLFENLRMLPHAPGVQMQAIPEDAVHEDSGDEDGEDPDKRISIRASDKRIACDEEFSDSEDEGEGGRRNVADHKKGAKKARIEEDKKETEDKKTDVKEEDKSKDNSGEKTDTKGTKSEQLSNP

Row | SMILES | Ki (Histone deacetylase 2 [1]) | K (Histone deacetylase 2 [2]) | IC50 (Histone deacetylase 1 [3]) | IC50 (Histone deacetylase 1 [4]) | K (Histone deacetylase 1 [5]) | T1/2 (Histone deacetylase 2 [6]) | Ki (Histone deacetylase 1 [7]) | K (Histone deacetylase 2 [8]) | K (Histone deacetylase 1 [9]) | IC50 (Histone deacetylase 1 [10]) | T1/2 (Histone deacetylase 1 [11]) | IC50 (Histone deacetylase 2 [12]) | IC50 (Histone deacetylase 2 [13]) | IC50 (Histone deacetylase 2 [14])
1 | CCCNNC(=O)c1ccc(CNC(=O)/C=C/c2ccccc2)cc1 | 103 nM | 5.1 10^-5/nM/min | 4.89 nM | 11.3 nM | 3 10^-3/min | 2.17 h | 40 nM | 5 10^-3/min | 7.8 10^-5/nM/min | 7.07 nM | 3.67 h | 48 nM | 24.8 nM | 14 nM
2 | Nc1ccccc1NC(=O)c1ccc(CNC(=O)OCc2cccnc2)cc1 | – | – | – | – | – | > 4 h | – | – | – | – | – | – | – | –
